Where a name gives a salt, the structure may show the parent alone. Read-outs that look alike come from different tables or passages of the source.
How the values were obtained:
[1] = Stability in buffer at various pH values (HPLC detection); assay type: physicochemical; details: for Stability pH4: % Test Compound after 4 h [F(t = 4 h) × 100/F(t = 0 h)]: pH 4, 4 h; for Stability pH4: % Test Compound after 4 h [F(t = 4 h) × 100/F(t = 0 h)] / Stability pH7.4: % Test Compound after 4 h [F(t = 4 h) × 100/F(t = 0 h)]: 37° C., prodrug remaining; for Stability pH7.4: % Test Compound after 4 h [F(t = 4 h) × 100/F(t = 0 h)]: pH 7.4, 4 h; for recovery at 60 min, 0.2 mg/mL / recovery at 120 min, 0.2 mg/mL / recovery at 240 min, 0.2 mg/mL / recovery at 1440 min, 0.2 mg/mL: read-out: Recovery (Assay 6, prodrug stability)
Experimental: Stability in Buffer at Various pH Values (HPLC Detection)
0.3 mg of the test compound was solved in 0.1 ml dimethylsulfoxide and 0.4 ml acetonitrile. For complete dissolution the HPLC vial with the sample solution was sonified for about 20 seconds. Then 1.0 ml of the respective buffer solution was added and the sample was again treated in the ultrasonic bath.
Buffer Solutions Used: • pH 4.0: Fluka buffer, Order No. 33643 (11.76 g citric acid, 2.57 g sodium chloride and 2.72 g sodium hydroxide)
pH 7.4: 90 g of sodium chloride, 13.61 g of potassium dihydrogen phosphate and 83.35 g of 1 M sodium hydroxide solution were made up to 1 L with Millipore water and then diluted 1:10.
10 μl portions of the sample solution were analysed by HPLC at different times (0 h, 1 h, 2 h, 4 h and 24 h) at 37° C. The peak areas in percentage were used for quantification.
Agilent 1100 with DAD (G1315B), binary pump (G1312A), autosampler (G1329A), column oven (G1316A), thermostat (G1330B); column: Kromasil 100 C18, 250 mm×4 mm, 5 μm; column temperature: 37° C.; eluent A: water+5 ml of perchloric acid/litre, eluent B: acetonitrile.
The ratios of the peak area (F) at different times in relation to the peak area at the starting point are shown in Table 3 for representative examples: […]

[2] = target: T1, (recombinant) catalytic domain of human Bub1 (amino acids 704-1085) (Homo sapiens, UniProt O43683); test: Equilibrium probe competition assay (TR-FRET kinase binding assay); details: read-out: IC50 (Assay 5, probe competition)
T1 construct: catalytic domain of human Bub1 (amino acids 704-1085); 6xHis (N); made in house; host or cells: Hi5 insect cells
From the text: Equilibrium Probe Competition Assay:
Bub1 binding affinity of compounds described in the present invention were quantified using a time-resolved fluorescence energy transfer (TR-FRET) kinase binding assay which measures displacement of the synthetic fluorescent probe 5-[({2-[2-({2-[1-(4-ethoxy-2,6-difluorobenzyl)-1H-indazol-3-yl]-4-(pyridin-4-ylamino)pyrimidin-5-yl}oxy)ethoxy]ethyl}carbamothioyl)amino]-2-(6-hydroxy-3-oxo-3H-xanthen-9-yl)benzoic acid (5-5-1) by the (recombinant) catalytic domain of human Bub1 (amino acids 704-1085). The enzyme was expressed in Hi5 insect cells with N-terminal 6×His/AviTag@ seqences, purified by affinity-(Ni-NTA) and size exclusion chromatography and site-specific biotinylated ex-vivo using a commercially available kit (Avidity).
In a typical assay 11 different concentrations of each compound (0.1 nM, 0.33 nM, 1.1 nM, 3.8 nM, 13 nM, 44 nM, ˜0.15 μM, ˜0.51 μM, ˜1.7 μM, 5.9 μM and 20 μM) were tested in duplicate within the same microtiter plate. To this end, 100-fold concentrated compound solutions (in DMSO) were made by serial dilution (1:3.4) of freshly prepared 2 mM stocks in a clear low volume 384-well source microtiter plate (Greiner Bio-One, Frickenhausen, Germany), from which 50 nl of compounds were transferred into a black low volume test microtiter plate from the same supplier. Subsequently 2 μL of a solution containing biotinylated Bub1 (the final concentration of Bub1 was adjusted depending on the activity of the enzyme lot in order to be within the linear dynamic range of the assay: typically ˜200 pM were used) and 1 nM Streptavidin Terbium Cryptate (Cisbio, No. 610SATLB) in aqueous assay buffer [50 mM Tris/HCl pH 7.5, 200 mM potassium chloride (KCl), 1.0 mM dithiothreitol (DTT), 0.1 mM sodium ortho-vanadate, 1% (v/v) glycerol, 0.01% (w/v) bovine serum albumine (BSA), 0.005% (v/v) Triton X-100 (Sigma), were added to the compounds in the test plate and the mixture was incubated for 15 min at 22′C to allow pre-equilibration of the putative enzyme-inhibitor complexes before the start of the probe competition reaction, which was initiated by the addition of 3 μL 1.67-fold concentrated solution (in assay buffer) of 5-5-1 (final concentration: 1.5 nM). The resulting mixture (5 μL final volume) was Incubated at 220 during 0, 15, 30, 60, 120, 240 and 1440 min. After each time point the resonance energy transfer from the Streptavidin Tb cryptate to the 3′,6′-dihydroxy-3H-spiro[2-benzofuran-1,9′-xanthen]-3-one moiety of 5-5-1 was measured in order to quantify the amount of fluorescent probe displaced by the test compounds. To this end, the fluorescence emissions at 520 nm and 490 nm after excitation at 330-350 nm were measured in a Pherastar FS TR-FRET plate reader, (BMG Lab technologies, Offenburg, Germany) and the ratio of the emissions (520 nm/490 nm) was taken as Indicator for the amount of Bub1/5-5-1 equilibrium complexes. The data were normalized using two sets of control wells for high-(=enzyme reaction without inhibitor=0%=Minimum inhibition) and low-(=all assay components without enzyme=100%=Maximum inhibition) Bub1 activity. IC50 values were calculated by fitting the normalized inhibition data to a 4-parameter logistic equation (Minimum, Maximum, IC50, Hill; Y=Max+(Min−Max)/(1+(X/IC50)Hill)).

SMILES	Stability pH4: % Test Compound after 4 h [F(t = 4 h) × 100/F(t = 0 h)] [1] [%]	Stability pH7.4: % Test Compound after 4 h [F(t = 4 h) × 100/F(t = 0 h)] [1] [%]	IC50 ([2]; Time 15 min) [nM]	IC50 ([2]; Time 30 min) [nM]	IC50 ([2]; Time 60 min) [nM]	IC50 ([2]; Time 90 min) [nM]	IC50 ([2]; Time 120 min) [nM]	IC50 ([2]; Time 240 min) [nM]	IC50 ([2]; Time 1440 min) [nM]	recovery at 60 min, 0.2 mg/mL [1] [%]	recovery at 120 min, 0.2 mg/mL [1] [%]	recovery at 240 min, 0.2 mg/mL [1] [%]	recovery at 1440 min, 0.2 mg/mL [1] [%]
CCOc1cc(F)c(Cn2nc(-c3ncc(OCCCOC(=O)[C@@H](NC(=O)[C@@H](N)CCCCN)C(C)C)c(Nc4ccncc4Cl)n3)c3ccccc32)c(F)c1 [Example 4-1-9, 3-({4-[(3-chloropyridin-4-yl)amino]-2-[1-(4-ethoxy-2,6-difluorobenzyl)-1H-indazol-3-yl]pyrimidin-5-yl}oxy)propyl L-lysyl-L-valinate]	99	99											
CCOc1cc(F)c(Cn2nc(-c3ncc(OCCCOC(=O)[C@H](C)NC(=O)[C@@H](N)CCCNC(=N)N)c(Nc4ccnc(NC(C)=O)c4)n3)c3ccccc32)c(F)c1 [Example 4-1-4, 3-[(4-{[2-(acetylamino)pyridin-4-yl]amino}-2-[1-(4-ethoxy-2,6-difluorobenzyl)-1H-indazol-3-yl]pyrimidin-5-yl)oxy]propyl L-arginyl-L-alaninate, salt with trifiuoroaceticacid]	100	53	2.8	0.58	0.61	0.55	0.54	0.32	0.33	86	73	53	3
CCOc1cc(F)c(Cn2nc(-c3ncc(OCCCOC(=O)[C@H](C)NC(=O)[C@@H](N)CCCCN)c(Nc4cc(C)ncc4C)n3)c3ccccc32)c(F)c1 [Example 4-1-7, 3-({4-[(2,5-dimethylpyridin-4-yl)amino]-2-[1-(4-ethoxy-2,6-difluorobenzyl)-1H-indazol-3-yl]pyrimidin-5-yl}oxy)propyl L-lysyl-L-alaninate, salt with trifluoroaceticacid]	99	43											
CCOc1cc(F)c(Cn2nc(-c3ncc(OCCCOC(=O)[C@H](C)NC(=O)[C@@H](N)CCCCN)c(Nc4ccnc(NC(C)=O)c4)n3)c3ccccc32)c(F)c1 [Example 4-1-2, 3-[(4-{[2-(acetylamino)pyridin-4-yl]amino}-2-[1-(4-ethoxy-2,6-difluorobenzyl)-1H-indazol-3-yl]pyrimidin-5-yl)oxy]propyl L-lysyl-L-alaninate, salt with trifiuoroaceticacid]	100	30											
CCOc1cc(F)c(Cn2nc(-c3ncc(OCCCOC(=O)[C@H](C)NC(=O)[C@@H](N)CCCNC(=N)N)c(Nc4ccncc4Cl)n3)c3ccccc32)c(F)c1 [Example 4-1-8, 3-({4-[(3-chloropyridin-4-yl)amino]-2-[1-(4-ethoxy-2,6-difluorobenzyl)-1H-indazol-3-yl]pyrimidin-5-yl}oxy)propyl L-arginyl-L-alaninate]	100	56											
CCOc1cc(F)c(Cn2nc(-c3ncc(OCCCOC(=O)[C@H](C)NC(=O)[C@@H](N)CCCCN)c(Nc4ccncc4Cl)n3)c3ccccc32)c(F)c1 [Example 4-1-5, 3-({4-[(3-chloropyridin-4-yl)amino]-2-[1-(4-ethoxy-2,6-difluorobenzyl)-1H-indazol-3-yl]pyrimidin-5-yl}oxy)propyl L-lysyl-L-alaninate, salt with trifluoroaceticacid]	101	42	1.5	0.82	0.6	0.51	0.46	0.27	0.25	81	65	42	0
CCOc1cc(F)c(Cn2nc(-c3ncc(OCCCOC(=O)[C@H](C)NC(=O)[C@@H](N)CCCCN)c(Nc4ccnc(C(F)F)c4)n3)c3ccccc32)c(F)c1 [Example 4-1-1, 3-[(4-{[2-(difluoromethyl)pyridin-4-yl]amino}-2-[1-(4-ethoxy-2,6-difluorobenzyl)-1H-Indazol-3-yl]pyrimidin-5-yl)oxy]propyl L-lysyl-L-alaninate, salt with trifluoroaceticacid]	100	32	1.4	1.5	1.4	1.5	1.3	1.5	2	76	57	32	0
CCOc1cc(F)c(Cn2nc(-c3ncc(OCCCOC(=O)[C@H](C)NC(=O)[C@H](N)CCCCN)c(Nc4cc(C)ncc4C)n3)c3ccccc32)c(F)c1 [Example 4-1-6, 3-({4-[(2,5-dimethylpyridin-4-yl)amino]-2-[1-(4-ethoxy-2,6-difluorobenzyl)-1H-indazol-3-yl]pyrimidin-5-yl}oxy)propyl D-lysyl-L-alaninate, salt with trifluoroaceticacid]	101	53											
CCOc1cc(F)c(Cn2nc(-c3ncc(OCCCOC(=O)[C@H](C)NC(=O)[C@H](N)CCCCN)c(Nc4ccnc(NC(C)=O)c4)n3)c3ccccc32)c(F)c1 [Example 4-1-3, 3-[(4-{[2-(acetylamino)pyridin-4-yl]amino}-2-[1-(4-ethoxy-2,6-difluorobenzyl)-1H-indazol-3-yl]pyrimidin-5-yl)oxy]propyl D-lysyl-L-alaninate, salt with trifiuoroaceticacid]	100	31	1.1	0.65	0.42	0.27	0.25	0.2	0.17	75	56	31	0

Source: patent publication US20170305882A1, “BENZYL SUBSTITUTED INDAZOLES AS BUB1 KINASE INHIBITORS” (Bayer Pharma Aktiengesellschaft, priority 2014, published 2017)
